From the supplement of paper PMC10883282
± gives the standard deviation of the averaged measurements.

System: SYO-1
Assay: relative viability vs DMSO control (72 h) (fraction); higher = more viable cells
Summary of the method: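 Serially diluted compound, 2.5 µl from source plates spanning 10 mM to 0.0002 mM, was added 24 h after sarcoma cell lines were seeded in 384-well plates at densities targeting 80–90% confluence. Plates then sat 72 h at 37 °C, 5% CO2, with 0.1% DMSO vehicle and a 5 µM positive control. Relative viability came from ATPLite as percent growth, averaged over up to triplicate wells, and was rescaled with 1 as full and 0 as none.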

SMILES	relative viability (0.00017 µM)	relative viability (0.00051 µM)	relative viability (0.00152 µM)	relative viability (0.00457 µM)	relative viability (0.01372 µM)	relative viability (0.04115 µM)	relative viability (0.1235 µM)	relative viability (0.3704 µM)	relative viability (1.111 µM)	relative viability (3.333 µM)	relative viability (10 µM)	relative viability (2 pM)	relative viability (5 pM)	relative viability (15 pM)	relative viability (50 pM)	relative viability (0.00014 µM)	relative viability (0.00041 µM)	relative viability (0.0012 µM)	relative viability (0.0037 µM)	relative viability (0.011 µM)	relative viability (200 fM)	relative viability (600 fM)
C[C@@H]1CCN(C(=O)CC#N)C[C@@H]1N(C)c1ncnc2[nH]ccc12 [Tofacitinib]	1.01 ± 0.051	0.969 ± 0.061	0.966 ± 0.072	0.923 ± 0.024	0.887 ± 0.039	0.902 ± 0.062	0.916 ± 0.043	0.888 ± 0.02	0.891 ± 0.053	0.868 ± 0.032	0.766 ± 0.044	–	–	–	–	–	–	–	–	–	–	–
CC[C@H](Nc1ncnc2[nH]cnc12)c1nc2cccc(F)c2c(=O)n1-c1ccccc1 [Idelalisib]	1.01 ± 0.062	0.979 ± 0.029	1 ± 0.054	0.968 ± 0.068	0.972 ± 0.069	0.942 ± 0.028	0.941 ± 0.032	0.931 ± 0.068	0.911 ± 0.045	0.866 ± 0.067	0.799 ± 0.079	–	–	–	–	–	–	–	–	–	–	–
COc1cc2nccc(Oc3ccc(NC(=O)Nc4cc(C)on4)c(Cl)c3)c2cc1OC [Tivozanib]	0.97 ± 0.049	0.952 ± 0.04	0.935 ± 0.051	0.941 ± 0.023	0.887 ± 0.051	0.796 ± 0.053	0.765 ± 0.02	0.706 ± 0.03	0.618 ± 0.065	0.523 ± 0.025	0.393 ± 0.027	–	–	–	–	–	–	–	–	–	–	–
COc1cc2c(cc1O)CCN[C@]21CS[C@@H]2c3c(OC(C)=O)c(C)c4c(c3[C@H](COC1=O)N1[C@@H]2[C@H]2c3c(cc(C)c(OC)c3O)C[C@@H]([C@@H]1O)N2C)OCO4 [Trabectedin]	–	–	–	–	–	–	–	–	–	–	–	0.489 ± 0.027	0.422 ± 0.039	0.299 ± 0.027	0.194 ± 0.13	0.0855 ± 0.18	0.0855 ± 0.18	0.26 ± 0.031	0.315 ± 0.0091	0.312 ± 0.02	0.4804 ± 0.002	0.512 ± 0.024
N#CC[C@H](C1CCCC1)n1cc(-c2ncnc3[nH]ccc23)cn1 [Ruxolitinib]	0.969 ± 0.039	0.975 ± 0.034	0.958 ± 0.035	0.945 ± 0.029	0.964 ± 0.026	0.969 ± 0.059	0.931 ± 0.043	0.941 ± 0.095	0.945 ± 0.048	0.892 ± 0.037	0.641 ± 0.014	–	–	–	–	–	–	–	–	–	–	–
Cc1cc(C)c(/C=C2\C(=O)Nc3ccccc32)[nH]1 [Semaxanib]	0.922 ± 0.014	0.915 ± 0.01	0.917 ± 0.014	0.908 ± 0.025	0.87 ± 0.035	0.824 ± 0.056	0.774 ± 0.047	0.721 ± 0.03	0.649 ± 0.046	0.632 ± 0.041	0.579 ± 0.0071	–	–	–	–	–	–	–	–	–	–	–
O=C(Cc1ccc(-c2ccc(OCCN3CCOCC3)cc2)cn1)NCc1ccccc1 [KX2-391]	1 ± 0.039	0.973 ± 0.038	0.958 ± 0.017	0.952 ± 0.042	0.917 ± 0.034	0.673 ± 0.027	0.295 ± 0.013	0.309 ± 0.011	0.324 ± 0.015	0.324 ± 0.011	0.357 ± 0.011	–	–	–	–	–	–	–	–	–	–	–
COc1cc2c(Oc3ccc4[nH]c(C)cc4c3F)ncnc2cc1OCCCN1CCCC1 [Cediranib]	0.965 ± 0.02	0.962 ± 0.039	0.967 ± 0.04	0.946 ± 0.043	0.91 ± 0.074	0.723 ± 0.036	0.5301 ± 0.0011	0.471 ± 0.019	0.453 ± 0.019	0.483 ± 0.012	0.482 ± 0.027	–	–	–	–	–	–	–	–	–	–	–
CO[C@H]1C[C@@H]2CC[C@@H](C)[C@@](O)(O2)C(=O)C(=O)N2CCCC[C@H]2C(=O)O[C@H]([C@H](C)C[C@@H]2CC[C@@H](OP(C)(C)=O)[C@H](OC)C2)CC(=O)[C@H](C)/C=C(\C)[C@@H](O)[C@@H](OC)C(=O)[C@H](C)C[C@H](C)/C=C/C=C/C=C/1C [Ridaforolimus]	0.941 ± 0.022	0.924 ± 0.024	0.915 ± 0.026	0.89 ± 0.037	0.868 ± 0.035	0.832 ± 0.041	0.79 ± 0.042	0.775 ± 0.038	0.748 ± 0.056	0.707 ± 0.058	0.672 ± 0.062	–	–	–	–	–	–	–	–	–	–	–
Cc1cnc(Nc2ccc(OCCN3CCCC3)cc2)nc1Nc1cccc(S(=O)(=O)NC(C)(C)C)c1 [Fedratinib]	0.982 ± 0.04	0.943 ± 0.078	0.941 ± 0.09	0.933 ± 0.037	0.898 ± 0.053	0.843 ± 0.027	0.748 ± 0.066	0.496 ± 0.052	0.132 ± 0.0092	-0.0159 ± 0.0034	-0.0172 ± 0.0037	–	–	–	–	–	–	–	–	–	–	–
Cn1cc(-c2cc3c(N4CCN(c5ncc([C@@](C)(N)c6ccc(F)cc6)cn5)CC4)ncnn3c2)cn1 [Avapritinib]	0.92 ± 0.012	0.898 ± 0.031	0.882 ± 0.057	0.844 ± 0.087	0.807 ± 0.1	0.718 ± 0.054	0.629 ± 0.053	0.568 ± 0.03	0.534 ± 0.059	0.439 ± 0.039	0.319 ± 0.023	–	–	–	–	–	–	–	–	–	–	–
CN1CCN(c2ccc3nc(-c4c(N)c5c(F)cccc5[nH]c4=O)[nH]c3c2)CC1 [Dovitinib]	1.04 ± 0.049	1.038 ± 0.0075	0.992 ± 0.037	0.998 ± 0.03	0.974 ± 0.014	0.927 ± 0.035	0.833 ± 0.0092	0.556 ± 0.012	0.388 ± 0.025	0.17 ± 0.023	-0.0198 ± 0.0062	–	–	–	–	–	–	–	–	–	–	–
